Where “and” joins values, the source holds several entries; their conditions need not be identical. Equal values may be shown once. Where a name gives a salt, the structure may show the parent alone.
System: C57BL/6 mouse embryos
Test: Doppler ultrasonography at E15.5 of mouse embryos exposed to Li or HCy on E6.75, FA rescue
Format: in vivo
Details: for Valve Regurgitation (percent of embryos): hydrochloride
From the text: To determine whether the results in the avian system would extend to the mammalian system, the inventors conducted studies in the mouse embryo. All mice were maintained according to protocols approved by the Institutional Animal Care and Use Committee at the University of South Florida. The C57BL/6 mouse strain (Jackson Laboratories, Bar Harbor, Me.) was used throughout the study. E0.5 was defined as the morning when the vaginal sperm plug was detected. Timed pregnant mice were randomly allocated to receive a single dose of 100 μl of 6.25 mg/ml Li chloride, as determined previously (Chen et al., 2008), 100 μl of 75 μM HCy, or 100 μl of 6.25 mg/ml sodium chloride (control group); all treatments were given intraperitoneally (i.p). On E15.5, the utero-placental circulation of the pregnant mice, and the central and peripheral circulations of the embryos were examined non-invasively in utero using Doppler ultrasonography (Gui et al., 1996; Linask and Huhta, 2000). Sixty-eight embryos were exposed to Li, 59 to HCy and 42 to physiological saline.
An HCy concentration of 75 μM, used for maternal exposure, was determined empirically using different doses of HCy (i.e. 150, 75, 50 and 15 μM). The minimal teratogenic dose was determined to be 75 μM. […] The single i.p. injection of HCy at E6.75 produced a high number of valve defects (66%), as well as resorptions (46%). […] Because not all embryos within litters are at exactly the same stage of development, the variability of effects seen with either Li or HCy probably reflects the differences in developmental stage.
As a control diet (i.e. normal mouse chow), mice continued to receive 3.3 mg/kg of FA as the baseline to maintain the health of the female mice. […] The animal chow supplemented with 10.5 mg/kg of FA was prepared for us by Harlan Laboratories. As recommended by Harlan, the calculations for the FA level in the special diet are based on the metabolic body weight of mice. Because of the obvious large difference in body weight between humans and mice, and because of the large difference in metabolic rate, Harlan uses the metabolic weight as a method of scaling these differences between species; for mice this was calculated to be BW0.75 (i.e. metabolic weight equals body weight to the 0.75 power). Each mouse consumes approximately 4 g of chow per day; therefore, to obtain the desired dose of 10.5 mg/kg, the inventors added 7.2 mg/kg of FA to the normal 3.3 mg/kg that is present in commercial chow. […]
Doppler ultrasonographic examinations were carried out using the Philips Sonos 5500 (Andover, Mass.) with a 12 MHz transducer and, more recently, with a Vevo 770 (VisualSonics) system. Both instruments provided similar echo patterns. On E15.5, the pregnant mice were anesthetized using a Surgivet Tech 4 anesthesia system (Waukesha, Wis.) with inhalation anesthesia, consisting of 3% isoflurane, administered through a nose cone; the mice were then maintained on 1% isoflurane with 21% oxygen. The mother was placed supine on a heating pad with electrode footpads. The heart rate and temperature of the pregnant mice were monitored using a THM100 (Indus Instruments, Houston, Tex.) during scanning. The body temperature was maintained at 37° C.
Maternal uterine artery blood flow velocity waveforms were obtained and the pulsatility index was calculated. The embryos were visualized and their position mapped in each uterine horn. Blood flow in the heart and blood vessels was detected in each embryo using color Doppler, and blood flow velocity waveforms were obtained using pulsed wave Doppler. Once the embryonic heart was identified by color Doppler, the sample volume of the pulsed Doppler was placed over the entire heart to obtain blood velocities. The gate length was adjusted to completely insonate the beating embryonic heart. The high-pass filter was at its lowest setting of 50 Hz. […]

[1] = echo at E15.5 after exposure on E6.75
[2] = echo at E15.5 after single exposure on E6.75
[3] = median, E15.5 after exposure at E6.75

Nc1nc2ncc(CNc3ccc(C(=O)N[C@@H](CCC(=O)O)C(=O)O)cc3)nc2c(=O)[nH]1 [FA, folic acid]
rescue of cardiac defects by baseline FA supplementation (3.3 mg/kg of FA in normal mouse chow): does not rescue cardiac defects
normalization of exposure effects by FA provided on E6.75 (FA i.p. on E6.75): normalized the effects of HCy, but not Li

N[C@H]1CCSC1=O [HCy, L-homocysteine thiolactone hydrochloride]
outflow peak velocity, maximum mean value (E15.5): 84.0
outflow peak velocity, maximum value (E15.5): 84.00 cm/s
outflow peak velocity, minimum mean value (E15.5): 18.5
outflow peak velocity, minimum value (E15.5): 18.53 cm/s
AV valve regurgitation, percent of embryos [1]: 10%
SL valve regurgitation, percent of embryos [1]: 53%
both SL and AV valve regurgitation, percent of embryos [1]: 3%
Valve Regurgitation (embryos affected/total) [2]: 39/59
Valve Regurgitation (percent of embryos) [2]: 66% and 66.1%
Valve Regurgitation (percent of embryos) (echo at E15.5 after single exposure on E6.75, listed as HCys): 66.1%
minimal teratogenic dose (maternal exposure, mouse, 150, 75, 50 and 15 μM tested): 75 µM
Embryonic A vel [3]: 40.14 cm/s
Embryonic Descending Aorta PI [3]: 1.99
Embryonic Ductus Veno sus PI [3]: 0.97
Embryonic E vel [3]: 12.25 cm/s
Embryonic E/A ratio [3]: 0.30
Embryonic ET % [3]: 42.51%
Embryonic Heart Rate [3]: 181 beats/min
Embryonic ICT % [3]: 6.56%
Embryonic IRT % [3]: 11.93%
Embryonic MPI [3]: 0.44
Embryonic OF peak velocity [3]: 39.92 cm/s
Embryonic Umbilical Artery PI [3]: 1.55
Maternal Heart Rate [3]: #458 beats/min
Maternal Uterine Artery PI [3]: 2.82
valve defects after i.p. injection on E7.75 (mouse, in vivo, ip): did not cause any valve defects

Source: patent publication US9308210B2, “Method for modulating canonical Wnt pathway using folate and inositol” (University of South Florida, priority 2009, dated 2016)
